# ChEMBL document CHEMBL3046025, “Fungitoxic Properties of N-Phenylformamidoximes in Control of Benzimidazole-Resistant Isolates of Fungi” (1992)
# Assays:
# Type in all cases: functional
# Botrytis cinerea [1] = assay: Antifungal activity against Benzimidalzole-resistant Botryotinia fuckeliana isolate Bc-20 infected compound-treated kidney bean leaves at 200 ppm after 4 days
# Botrytis cinerea [2] = assay: Antifungal activity against Benzimidalzole-resistant Botryotinia fuckeliana isolate Bc-20 infected compound-treated kidney bean leaves at 50 ppm after 4 days
# Cercospora beticola [3] = assay: Ratio of EC50 for Benzimidalzole-sensitive Cercospora beticola isolate 22-5 to EC50 for Benzimidalzole-resistant Cercospora beticola isole Cb-19
# Cercospora beticola [4] = assay: Antifungal activity against Benzimidalzole-resistant Cercospora beticola isolate Cb-19 infected in sugar beet seedlings at 50 ppm applied as soil drench 3 days prior to inoculation
# Botrytis cinerea [5] = assay: Antifungal activity against Benzimidalzole-resistant Botryotinia fuckeliana isolate Bc-44 infected compound-treated kidney bean leaves at 0.8 ppm after 4 days
Compound,Activity (Botrytis cinerea [1]),Activity (Botrytis cinerea [2]),Ratio EC50 (Cercospora beticola [3]),Activity (Cercospora beticola [4]),Activity (Botrytis cinerea [5])
C#CCOc1c(Cl)cc(N/C=N/OC)cc1Cl,11%,6%,> 1000,,
C#CCOc1cc(N/C=N/OC)cc(Cl)c1OCC#C,,,> 1000,68%,75%
